Converted amounts (≈) assume the structure as drawn. Where a name gives a salt, the structure may show the parent alone.

The first series is described as follows: Solubility by HPLC relative to a reference sample. The series is classed as physicochemical. The conditions noted are these: aqueous buffer, phosphate buffer, at the pH given. As for the experimental part: The evaluation of the solubility of the compounds of the invention is carried out at pH 4 (using a phosphate buffer, […]) by HPLC using an H2O/CH3CN/CH3SO3H gradient, relative to a reference sample (a dilute solution of the product to be evaluated which serves as an internal control). The solubility S results are expressed in mg/ml. Generally, the compounds of the present invention have a solubility S≧4 mg/ml at pH≧4. Among them, mention may be made of the solubilities of the following compounds in the table below: […]
Turning to `CCCCc1cc2cc(C(=O)N(CC)CCOC(C)C)ccn2c1C(=O)c1ccc(CCCN(CCCC)CCCC)cc1` [compound 23, 2-Butyl-3-[4-(3-dibutylaminopropyl)benzoyl]indolizine-7-carboxylic acid ethyl(2-isopropoxyethyl)amide], the solubility (as a rule, the dissolved amount per volume that the medium holds) was determined as 6170 µg/mL (≈ 10.2 mM).

`CCc1cc2cc(C(=O)N(CC(=O)OC)C(C)C)ccn2c1C(=O)c1ccc(CCCNC2CCCCC2)cc1` [compound 35, ({3-[4-(3-Cyclohexylaminopropyl)benzoyl]-2-ethylindolizine-7-carbonyl}isopropylamino)acetic acid methyl ester] displayed a solubility of 1570 µg/mL (≈ 2.88 mM).

Take `CCCCc1cc2cc(C(=O)N(CC)Cc3nc(C)no3)ccn2c1C(=O)c1ccc(CCCN(CCCC)CCCC)cc1` [Compound No. 10, 2-Butyl-3-[4-(3-dibutylaminopropyl)benzoyl]indolizine-7-carboxylic acid ethyl(3-methyl-[1,2,4]oxadiazol-5-ylmethyl)amide]: the solubility was determined as 4980 µg/mL (≈ 8.11 mM).

`CCCCc1cc2cc(C(=O)N(CC)Cc3nnn[nH]3)ccn2c1C(=O)c1ccc(CCCN(CCCC)CCCC)cc1` [Compound No. 11, 2-Butyl-3-[4-(3-dibutylaminopropyl)benzoyl]indolizine-7-carboxylic acid ethyl(1H-tetrazole-5-ylmethyl)amide] yielded a solubility of 240 µg/mL (≈ 0.4 mM).

As to `CCCCN(CCCC)CCCc1ccc(C(=O)c2c(CC)cc3cc(C(=O)N(CC)CC(=O)OC(C)C)ccn23)cc1` [compound 58, ({3-[4-(3-Dibutylamino-propyl)benzoyl]-2-ethylindolizine-7-carbonyl}ethyl-amino)acetic acid isopropyl ester], the solubility came out at 6300 µg/mL (≈ 10.7 mM). This solubility lies about 26-fold higher than the previous one.

The compound `CCc1cc2cc(C(=O)N(CC)Cc3nnn(C)n3)ccn2c1C(=O)c1ccc(CCC(C)(C)NC(C)(C)C)cc1` [Compound No. 18, 3-[4-(3-tert-Butylamino-3-methylbutyl)benzoyl]-2-ethylindolizine-7-carboxylic acid ethyl(2-methyl-2H-tetrazol-5-ylmethyl)amide] showed a solubility of 7880 µg/mL (≈ 14.1 mM).

`CCCCc1cc2cc(C(=O)N(CC)CC(=O)OCC)ccn2c1C(=O)c1ccc(CCCN(CCCC)CCCC)cc1` [compound 26, ({2-Butyl-3-[4-(3-dibutylamino-propyl)benzoyl]indolizine-7-carbonyl}ethylamino)acetic acid ethyl ester] registered a solubility of 1140 µg/mL (≈ 1.89 mM).

In the case of `CCc1cc2cc(C(=O)N(CC(=O)OC)C(C)C)ccn2c1C(=O)c1ccc(CCCC2(NC(C)C)CCCC2)cc1` [compound 79, [(2-Ethyl-3-{4-[3-(1-isopropylamino-cyclopentyl)propyl]benzoyl}indolizine-7-carbonyl)isopropylamino]acetic acid methyl ester], the solubility worked out at 8020 µg/mL (≈ 14 mM).

For the compound `CCCCc1cc2cc(C(=O)N3CCC[C@H]3C(=O)OC)ccn2c1C(=O)c1ccc(CCCN(CCCC)CCCC)cc1` [Compound No. 2, (S)-1-{2-Butyl-3-[4-(3-dibutylamino-propyl)benzoyl]indolizine-7-carbonyl}-pyrrolidine-2-carboxylic acid methyl ester], the solubility turned out to be 6300 µg/mL (≈ 10.5 mM).

In turn, `CCCN(CCC)CCCc1ccc(C(=O)c2c(CC)cc3cc(C(=O)N(CC(=O)OC)C(C)C)ccn23)cc1` [compound 61, ({3-[4-(3-Dipropylamino-propyl)benzoyl]-2-ethylindolizine-7-carbonyl}isopropylamino)acetic acid methyl ester] had a solubility of 8930 µg/mL (≈ 16.3 mM).

As to `CCc1cc2cc(C(=O)N(CC(=O)OC)C(C)C)ccn2c1C(=O)c1ccc(CCCN(CC)C(C)C)cc1` [compound 55, [(2-Ethyl-3-{4-[3-(ethylisopropylamino)propyl]benzoyl}indolizine-7-carbonyl)isopropylamino]acetic acid methyl ester], the solubility stood at 8820 µg/mL (≈ 16.5 mM). This solubility and that of the compound before are within 1.5-fold of each other.

On to `CCCCN(CCCC)CCCc1ccc(C(=O)c2ccc3cc(C(=O)N(CC(=O)OC)C(C)C)ccn23)cc1` [compound 56, ({3-[4-(3-Dibutylamino-propyl)benzoyl]indolizine-7-carbonyl}isopropyl-amino)acetic acid methyl ester], for which the solubility was 8300 µg/mL (≈ 15.2 mM).

Compound `CCc1cc2cc(C(=O)N(CC(=O)OC)C(C)C)ccn2c1C(=O)c1ccc(CCCNC2CCCC2)cc1` [Compound No. 8, ({3-[4-(3-Cyclopentylaminopropyl)benzoyl]-2-ethylindolizine-7-carbonyl}isopropylamino)acetic acid methyl ester] came in with a solubility of 4900 µg/mL (≈ 9.22 mM). This solubility is about 1.7-fold lower than that of the compound before.

In turn, `CCc1cc2cc(C(=O)N3CCC[C@@]3(C)C(=O)OC)ccn2c1C(=O)c1ccc(CCCNC(C)(C)C)cc1` [compound 50, (S)-1-{3-[4-(3-tert-Butylaminopropyl)benzoyl]-2-ethylindolizine-7-carbonyl}-2-methylpyrrolidine-2-carboxylic acid methyl ester] returned a solubility of 8980 µg/mL (≈ 16.9 mM). This solubility lies about 1.8-fold higher than the previous one.

As to `CCCCc1cc2cc(C(=O)N(CC)CC(=O)OC)ccn2c1C(=O)c1ccc(CCCN(CCCC)CCCC)cc1` [Compound No. 5, ({2-Butyl-3-[4-(3-dibutylaminopropyl)benzoyl]indolizine-7-carbonyl}ethylamino)acetic acid methyl ester], the solubility was 5900 µg/mL (≈ 10 mM). Against the preceding compound, the solubility is about 1.5-fold lower.

Consider `CCCCc1cc2cc(C(=O)N(CC)CC(=O)O)ccn2c1C(=O)c1ccc(CCCN(CCCC)CCCC)cc1` [Compound No. 6, ({2-Butyl-3-[4-(3-dibutylaminopropyl)benzoyl]indolizine-7-carbonyl}ethylamino)acetic acid], for which the solubility amounted to 4900 µg/mL (≈ 8.51 mM).

`CCc1cc2cc(C(=O)N(CC)Cc3nnn(C)n3)ccn2c1C(=O)c1ccc(CCCNC(C)(C)C)cc1` [Compound No. 17, 3-[4-(3-tert-Butylaminopropyl)benzoyl]-2-ethylindolizine-7-carboxylic acid ethyl(2-methyl-2H-tetrazol-5-ylmethyl)amide] displayed a solubility of 8230 µg/mL (≈ 15.5 mM).

Test in the next series: not given
Conditions: not given
Regarding `CCN(Cc1nnn(C)n1)C(=O)c1ccn2c(C(=O)c3ccc(CCCNC(C)(C)C)cc3)c(C3CCC3)cc2c1` [compound 42, 3-[4-(3-tert-Butylaminopropyl)benzoyl]-2-cyclobutylindolizine-7-carboxylic acid ethyl(2-methyl-2H-tetrazol-5-ylmethyl)amide], the melting point (in general, the temperature, or range, at which the solid turns liquid) was 195 °C.

On to `CCc1cc2cc(C(=O)N(CC)Cc3ccn(C)n3)ccn2c1C(=O)c1ccc(CCCNC(C)(C)C)cc1` [compound 44, 3-[4-(3-tert-Butylaminopropyl)benzoyl]-2-ethylindolizine-7-carboxylic acid ethyl(1-methyl-1H-pyrazol-3-ylmethyl)amide], for which the melting point amounted to 149 °C.

The compound `CCc1cc2cc(C(=O)N(CC(=O)OC)C(C)C)ccn2c1C(=O)c1ccc(CCC(C)(C)NC2CCCC2)cc1` (as salt: hydrochloride) [Compound No. 19, ({3-[4-(3-Cyclopentylamino-3-methylbutyl)benzoyl]-2-ethylindolizine-7-carbonyl}isopropylamino)acetic acid methyl ester] registered a melting point of 245 °C.

In turn, `CCN(Cc1nnn(C)n1)C(=O)c1ccn2c(C(=O)c3ccc(CCCNC(C)(C)C)cc3)c(C)cc2c1` [compound 78, 3-[4-(3-tert-Butylaminopropyl)benzoyl]-2-methylindolizine-7-carboxylic acid ethyl(2-methyl-2H-tetrazol-5-ylmethyl)amide] came in with a melting point of 153 °C.

The values above are taken from US20130245006A1, “NOVEL INDOLIZINE DERIVATIVES, AND PREPARATION AND THERAPEUTIC USE THEREOF” (SANOFI, priority 2010, published 2013).
